# Experimental data reported in PubChem BioAssay (NCI).
#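 A five-concentration, 48-hour dose response in 96-well plates underlies each endpoint, interpolated linearly between surrounding concentrations. The concentration for 50% growth inhibition is given as GI50. TGI: concentration producing complete growth inhibition.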
# Tests used:
# Assay in all cases: NCI anticancer screen, dose series, 48 h
# KM12 colon = system: KM12 colon
# NCI-H522 lung = system: NCI-H522 lung
# K-562 leukemia = system: K-562 leukemia
# MALME-3M melanoma = system: MALME-3M melanoma
# SK-MEL-5 melanoma = system: SK-MEL-5 melanoma
# SNB-75 CNS = system: SNB-75 CNS
# HOP-92 NSCLC = system: HOP-92 NSCLC
# TK-10 renal = system: TK-10 renal
# CCRF-CEM leukemia = system: CCRF-CEM leukemia
# NCI/ADR-RES ovarian = system: NCI/ADR-RES ovarian
# OVCAR-4 ovarian = system: OVCAR-4 ovarian
# SK-MEL-2 melanoma = system: SK-MEL-2 melanoma
# BT-549 breast = system: BT-549 breast
# UO-31 renal = system: UO-31 renal
# LOX IMVI melanoma = system: LOX IMVI melanoma
# COLO 205 colon = system: COLO 205 colon
# SNB-19 CNS = system: SNB-19 CNS
# RXF 393 renal = system: RXF 393 renal
# SR leukemia = system: SR leukemia
# OVCAR-3 ovarian = system: OVCAR-3 ovarian
# DU-145 prostate = system: DU-145 prostate
# RPMI-8226 leukemia = system: RPMI-8226 leukemia
# SN12C renal = system: SN12C renal
# 786-0 renal = system: 786-0 renal
# HCT-15 colon = system: HCT-15 colon
# EKVX NSCLC = system: EKVX NSCLC
# A549 NSCLC = system: A549 NSCLC
# SF-539 CNS = system: SF-539 CNS
# UACC-257 melanoma = system: UACC-257 melanoma
# MCF7 breast = system: MCF7 breast
# HS 578T breast = system: HS 578T breast
# ACHN renal = system: ACHN renal
# OVCAR-5 ovarian = system: OVCAR-5 ovarian
# PC-3 prostate = system: PC-3 prostate
# HL-60(TB) leukemia = system: HL-60(TB) leukemia
# CAKI-1 renal = system: CAKI-1 renal
# SF-268 CNS = system: SF-268 CNS
# NCI-H23 lung = system: NCI-H23 lung
# MOLT-4 leukemia = system: MOLT-4 leukemia
# NCI-H226 lung = system: NCI-H226 lung
# NCI-H460 lung = system: NCI-H460 lung
# SK-OV-3 ovarian = system: SK-OV-3 ovarian
# HCT-116 colon = system: HCT-116 colon
# MDA-MB-435 = system: MDA-MB-435
# U251 CNS = system: U251 CNS
# SF-295 CNS = system: SF-295 CNS
# SK-MEL-28 melanoma = system: SK-MEL-28 melanoma
# OVCAR-8 ovarian = system: OVCAR-8 ovarian
# M14 melanoma = system: M14 melanoma
# A498 renal = system: A498 renal
# UACC-62 melanoma = system: UACC-62 melanoma
# MDA-MB-231 breast = system: MDA-MB-231 breast
# T-47D breast = system: T-47D breast
# HCC-2998 colon = system: HCC-2998 colon
# SW-620 colon = system: SW-620 colon
# HT29 colon = system: HT29 colon
# IGROV1 ovarian = system: IGROV1 ovarian
# HOP-62 NSCLC = system: HOP-62 NSCLC
compound,measurement,setting,value
CC12CC=CCC1CCC1C2CCC2(C)C(c3ccc(=O)oc3)CCC12O (stereo unspecified),GI50,KM12 colon,315 nM
same,TGI,KM12 colon,1550 nM
same,GI50,NCI-H522 lung,38.3 nM
same,TGI,NCI-H522 lung,273 nM
same,GI50,K-562 leukemia,96.7 nM
same,TGI,K-562 leukemia,2270 nM
same,GI50,MALME-3M melanoma,104 nM
same,TGI,MALME-3M melanoma,364 nM
same,GI50,SK-MEL-5 melanoma,63.3 nM
same,TGI,SK-MEL-5 melanoma,312 nM
same,GI50,SNB-75 CNS,60.4 nM
same,TGI,SNB-75 CNS,302 nM
same,GI50,HOP-92 NSCLC,148 nM
same,TGI,HOP-92 NSCLC,756 nM
same,GI50,TK-10 renal,60.7 nM
same,TGI,TK-10 renal,496 nM
same,GI50,CCRF-CEM leukemia,37 nM
same,TGI,CCRF-CEM leukemia,303 nM
same,GI50,NCI/ADR-RES ovarian,48.5 nM
same,TGI,NCI/ADR-RES ovarian,276 nM
same,GI50,OVCAR-4 ovarian,197 nM
same,TGI,OVCAR-4 ovarian,641 nM
same,GI50,SK-MEL-2 melanoma,240 nM
same,TGI,SK-MEL-2 melanoma,741 nM
same,GI50,BT-549 breast,40 nM
same,TGI,BT-549 breast,209 nM
same,GI50,UO-31 renal,98.8 nM
same,TGI,UO-31 renal,225 nM
same,GI50,LOX IMVI melanoma,56.2 nM
same,TGI,LOX IMVI melanoma,213 nM
same,GI50,COLO 205 colon,360 nM
same,TGI,COLO 205 colon,1450 nM
same,GI50,SNB-19 CNS,295 nM
same,TGI,SNB-19 CNS,1190 nM
same,GI50,RXF 393 renal,17.4 nM
same,TGI,RXF 393 renal,50.1 nM
same,GI50,SR leukemia,30 nM
same,TGI,SR leukemia,123 nM
same,GI50,OVCAR-3 ovarian,56.6 nM
same,TGI,OVCAR-3 ovarian,282 nM
same,GI50,DU-145 prostate,44.8 nM
same,TGI,DU-145 prostate,168 nM
same,GI50,RPMI-8226 leukemia,107 nM
same,TGI,RPMI-8226 leukemia,756 nM
same,GI50,SN12C renal,37.8 nM
same,TGI,SN12C renal,470 nM
same,GI50,786-0 renal,38.7 nM
same,TGI,786-0 renal,209 nM
same,GI50,HCT-15 colon,105 nM
same,TGI,HCT-15 colon,458 nM
same,GI50,EKVX NSCLC,60.2 nM
same,TGI,EKVX NSCLC,212 nM
same,GI50,A549 NSCLC,32 nM
same,TGI,A549 NSCLC,119 nM
same,GI50,SF-539 CNS,55 nM
same,TGI,SF-539 CNS,184 nM
same,GI50,UACC-257 melanoma,246 nM
same,TGI,UACC-257 melanoma,769 nM
same,GI50,MCF7 breast,79.4 nM
same,TGI,MCF7 breast,961 nM
same,GI50,HS 578T breast,33.5 nM
same,TGI,HS 578T breast,473 nM
same,GI50,ACHN renal,36.9 nM
same,TGI,ACHN renal,138 nM
same,GI50,OVCAR-5 ovarian,186 nM
same,TGI,OVCAR-5 ovarian,482 nM
same,GI50,PC-3 prostate,74.7 nM
same,TGI,PC-3 prostate,309 nM
same,GI50,HL-60(TB) leukemia,27.2 nM
same,TGI,HL-60(TB) leukemia,73.2 nM
same,GI50,CAKI-1 renal,135 nM
same,TGI,CAKI-1 renal,448 nM
same,GI50,SF-268 CNS,47.5 nM
same,TGI,SF-268 CNS,268 nM
same,GI50,NCI-H23 lung,54.8 nM
same,TGI,NCI-H23 lung,330 nM
same,GI50,MOLT-4 leukemia,29.2 nM
same,TGI,MOLT-4 leukemia,113 nM
same,GI50,NCI-H226 lung,219 nM
same,TGI,NCI-H226 lung,595 nM
same,GI50,NCI-H460 lung,33.8 nM
same,TGI,NCI-H460 lung,128 nM
same,GI50,SK-OV-3 ovarian,276 nM
same,TGI,SK-OV-3 ovarian,688 nM
same,GI50,HCT-116 colon,34.9 nM
same,TGI,HCT-116 colon,143 nM
same,GI50,MDA-MB-435,179 nM
same,TGI,MDA-MB-435,727 nM
same,GI50,U251 CNS,127 nM
same,TGI,U251 CNS,337 nM
same,GI50,SF-295 CNS,46.2 nM
same,TGI,SF-295 CNS,250 nM
same,GI50,SK-MEL-28 melanoma,300 nM
same,TGI,SK-MEL-28 melanoma,1370 nM
same,GI50,OVCAR-8 ovarian,94.4 nM
same,TGI,OVCAR-8 ovarian,324 nM
same,GI50,M14 melanoma,113 nM
same,TGI,M14 melanoma,404 nM
same,GI50,A498 renal,76.8 nM
same,TGI,A498 renal,540 nM
same,GI50,UACC-62 melanoma,233 nM
same,TGI,UACC-62 melanoma,661 nM
same,GI50,MDA-MB-231 breast,336 nM
same,TGI,MDA-MB-231 breast,1640 nM
same,GI50,T-47D breast,230 nM
same,TGI,T-47D breast,887 nM
same,GI50,HCC-2998 colon,374 nM
same,TGI,HCC-2998 colon,3370 nM
same,GI50,SW-620 colon,53.9 nM
same,TGI,SW-620 colon,366 nM
same,GI50,HT29 colon,63.3 nM
same,TGI,HT29 colon,768 nM
same,GI50,IGROV1 ovarian,73.7 nM
same,TGI,IGROV1 ovarian,1410 nM
same,GI50,HOP-62 NSCLC,45.9 nM
same,TGI,HOP-62 NSCLC,201 nM
